Each molecule was assayed against T1, hCD38 Enzyme (Homo sapiens, UniProt P28907) (assay: CD38 hydrolase enzymatic assay). Conditions: rhCD38, ε-NAD substrate, 25° C., point reading time 20 mins; read-out: hCD38 Enzyme inhibition IC50.
T1 construct: purchased Sino Biological Inc 10818-H08H
T1 sequence (P28907 43-300 limits assumed): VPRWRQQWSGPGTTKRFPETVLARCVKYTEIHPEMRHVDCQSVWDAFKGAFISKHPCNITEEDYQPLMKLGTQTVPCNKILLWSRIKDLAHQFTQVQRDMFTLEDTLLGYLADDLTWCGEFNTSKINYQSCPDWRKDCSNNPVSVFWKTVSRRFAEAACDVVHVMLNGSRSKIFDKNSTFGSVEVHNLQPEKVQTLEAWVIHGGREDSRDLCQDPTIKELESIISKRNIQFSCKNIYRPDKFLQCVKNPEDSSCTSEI
Format: biochemical
Experimental: Also, a blank sample was prepared with 50 μl of sucrose buffer and no test compounds.
The dynamic reading was performed at 25° C. with excitation light of 300 nm and emission light of 410 nm on the enzyme marker by contacting the above-prepared rhCD38 enzyme working fluid and the above-prepared solutions of the test compounds disclosed herein or the solution of the control. The readings were recorded for a total of 1 hour, and the data were analyzed with the point reading time of 20 mins.
Fluorescence was recorded by a microplate reader. Individual excel files containing fluorescence data were exported and the results were plotted against various drug concentrations and analyzed in GraphPad Prism 7.0 for concentration curve generation.
`CO[C@H]1CC[C@H](NC(=O)c2cc(C(F)(F)F)cc(-n3ccnc3)n2)CC1` [compound 53, 6-(1H-imidazol-1-yl)-N-((1r,4r)-4-methoxycyclohexyl)-4-(trifluoromethyl) picolinamide] gave an IC50 of 36 nM. `CO[C@H]1CC[C@H](NC(=O)c2cc(-n3ccnn3)cc3cc[nH]c23)CC1` [compound 54, N-((1r,4r)-4-methoxycyclohexyl)-5-(1H-1,2,3-triazol-1-yl)-1H-indole-7-carboxamide] was tested, and the IC50 was 6850 nM. In the case of `CO[C@H]1CC[C@H](NC(=O)c2cc(-n3nccn3)cc3cc[nH]c23)CC1` [compound 55, N-((1r,4r)-4-methoxycyclohexyl)-5-(2H-1,2,3-triazol-2-yl)-1H-indole-7-carboxamide], the IC50 is reported as > 10000 nM. For `CO[C@H]1CC[C@H](NC(=O)c2cc(-n3ccnc3)cnc2N)CC1` [compound 59, 2-amino-5-(1H-imidazol-1-yl)-N-((1r,4r)-4-methoxycyclohexyl) nicotinamide], the IC50 was > 10000 nM. Work on `CO[C@H]1CC[C@H](NC(=O)c2nc(-n3ccnc3)ccc2N)CC1` [compound 60, 3-amino-6-(1H-imidazol-1-yl)-N-((1r,4r)-4-methoxycyclohexyl) picolinamide] yielded an IC50 of 17 nM. For `Nc1ccc(-n2ccnc2)nc1C(=O)NC1CCCCC1` [compound 61, 3-amino-N-cyclohexyl-6-(1H-imidazol-1-yl)picolinamide], the IC50 was 15 nM. For `O=C(Nc1cccnc1)c1ccnc(-n2ccnc2)n1` [compound 66, 2-(1H-imidazol-1-yl)-N-(pyridin-3-yl)pyrimidine-4-carboxamide], the IC50 was 1.7 nM. For `CO[C@H]1CC[C@H](NC(=O)c2nc(-n3ccnc3)cnc2O)CC1` [compound 67, 3-hydroxy-6-(1H-imidazol-1-yl)-N-((1r,4r)-4-methoxycyclohexyl)pyrazine-2-carboxamide], the IC50 was > 10000 nM. For `CO[C@H]1CC[C@H](NC(=O)c2cc(-n3ccnc3)ncc2N)CC1` [compound 69, 5-amino-2-(1H-imidazol-1-yl)-N-((1r,4r)-4-methoxycyclohexyl) isonicotinamide], the IC50 was 111 nM. `CO[C@H]1CC[C@H](NC(=O)c2nc(-n3ccnc3)ccc2O)CC1` [compound 71, 3-hydroxy-6-(1H-imidazol-1-yl)-N-((1r,4r)-4-methoxycyclohexyl) picolinamide] gave an IC50 of 73 nM. `O=C(NC1CCCCC1)c1ccnc(-n2ccnc2)n1` [compound 72, N-cyclohexyl-2-(1H-imidazol-1-yl)pyrimidine-4-carboxamide] showed an IC50 of 16 nM. `COc1ccc(C(=O)N[C@H]2CC[C@H](OC)CC2)nc1-n1ccnc1` [compound 74, 6-(1H-imidazol-1-yl)-5-methoxy-N-((1r,4r)-4-methoxycyclohexyl) picolinamide] was tested, and the IC50 was 4040 nM. For `CO[C@H]1CC[C@H](NC(=O)c2nc(-n3ccnc3)ccc2Cl)CC1` [compound 75, 3-chloro-6-(1H-imidazol-1-yl)-N-((1r,4r)-4-methoxycyclohexyl) picolinamide], the IC50 was 389 nM. `CO[C@H]1CC[C@H](NC(=O)c2ccc(C)c(-n3ccnc3)n2)CC1` [compound 76, 6-(1H-imidazol-1-yl)-N-((1r,4r)-4-methoxycyclohexyl)-5-methylpicolinamide] was tested, and the IC50 was > 10000 nM. With `CO[C@H]1CC[C@H](NC(=O)c2ccc(Cl)c(-n3ccnc3)n2)CC1` [compound 77, 5-chloro-6-(1H-imidazol-1-yl)-N-((1r,4r)-4-methoxycyclohexyl) picolinamide] the IC50 was 2450 nM. With `Cc1cn(-c2cncc(C(=O)NC3CCCCC3)n2)cn1` [compound 78, N-cyclohexyl-6-(4-methyl-1H-imidazol-1-yl)pyrazine-2-carboxamide] the IC50 was > 10000 nM. `Cc1cncn1-c1cncc(C(=O)NC2CCCCC2)n1` [compound 79, N-cyclohexyl-6-(5-methyl-1H-imidazol-1-yl)pyrazine-2-carboxamide] gave an IC50 of 2190 nM. With `Cc1nccn1-c1cncc(C(=O)NC2CCCCC2)n1` [compound 80, N-cyclohexyl-6-(2-methyl-1H-imidazol-1-yl)pyrazine-2-carboxamide] the IC50 was > 10000 nM. Molecule `O=C(Nc1ccccc1)c1cccc(-n2ccnc2)n1` [compound 81, 6-(1H-imidazol-1-yl)-N-phenylpicolinamide] has an IC50 of 15 nM.
